Source: patent US20240197651A1, “DEXMECAMYLAMINE AND USES THEREOF” (Atacama Therapeutics, Inc., priority 2021, published 2024)

Legend:
Type in all cases: in vivo
[1] = system: patients with sebaceous carcinoma; assay: Treatment of sebaceous carcinoma
Method: The compound of the disclosure (e.g., dexmecamylamine substantially free of exo-R-mecamylamine) is administered to patients with sebaceous carcinoma. […] In some embodiments, the subject produces sebum in an amount of 100 μg/cm^2 and above (e.g., 125, 135, 150, 175, 200 μg/cm^2 or higher).

patients with acne = assay: Treatment of acne
Method: The compound of the disclosure (e.g., dexmecamylamine substantially free of exo-R-mecamylamine or pharmaceutically acceptable salt thereof) is administered to patients with acne. […] In some embodiments, the compound is dexmecamylamine substantially free of exo-R-mecamylamine, or a pharmaceutically acceptable salt thereof. In some embodiments, the subject produces sebum in an amount of 100 μg/cm^2 and above (e.g., 125, 135, 150, 175, 200 μg/cm^2 or higher). In particular, 4 mg of dexmecamylamine hydrochloride is administered orally twice a day to a subject. Subjects have oily skin (>100 μg/cm^2) as measured on three locations of the face by a Sebumeter® grease spot photometry device and has facial acne vulgaris (including the nose). Efficacy is determined by a comparison of sebum as an absolute change from baseline at 12 weeks. Other measures of efficacy include the absolute change from baseline in inflammatory and non-inflammatory lesion counts at 8 weeks and the percent change from baseline in lesion counts (inflammatory and noninflammatory) at weeks 8 and 12. […] The assessment may include the quantity of lesions, size of lesions, intensity of inflammation, and location of lesions to consider the quality and quantity of lesions.

[2] = system: human subjects with hyperhidrosis and oily skin; assay: Phase II clinical study, facial sebum production; settings: for Average response category at 2 weeks: change in percent of average facial sebum quantity at end of 2-week treatment vs baseline; for Average response category at 4 weeks: change in percent of average facial sebum quantity at end of 4-week treatment vs baseline; for Responders (%): subjects with 20% or greater reduction in sebum quantity following treatment
Text: Acne vulgaris is a dermatological condition characterized by increased sebum production, which is driven, in part, by cholinergic signaling within the sympathetic nervous system. Activation of nicotinic receptors on human sebaceous glands is known to increase sebum production and secretion. Dexmecamylamine acts on nicotinic acetylcholine receptors to reduce sympathetic tone through the selective inhibition of presynaptic nicotinic receptors in the sympathetic ganglia. In order to determine the therapeutic efficacy of dexmecamylamine in the treatment of acne and related conditions, the inventors leveraged a Phase II clinical study in 15 human subjects with hyperhidrosis and oily skin (i.e., sebum production of 100 μg/cm^2 or greater (e.g., 125, 135, 150, 175, 200 μg/cm^2 or higher)) that were treated with dexmecamylamine hydrochloride. […] [table]

patients with oily skin = assay: Treatment of oily skin
Method: The compound of the disclosure (e.g., dexmecamylamine substantially free of exo-R-mecamylamine) is administered to patients with oily skin. […] In some embodiments, the subject produces sebum in an amount of 100 μg/cm^2 and above (e.g., 125, 135, 150, 175, 200 μg/cm^2 or higher).

[3] = system: patients with sebaceous hyperplasia; assay: Treatment of sebaceous hyperplasia
Method: The compound of the disclosure (e.g., dexmecamylamine substantially free of exo-R-mecamylamine) is administered to patients with sebaceous hyperplasia. […] In some embodiments, the subject produces sebum in an amount of 100 μg/cm^2 and above (e.g., 125, 135, 150, 175, 200 μg/cm^2 or higher).

[4] = system: patients with seborrheic dermatitis; assay: Treatment of seborrheic dermatitis
Method: The compound of the disclosure (e.g., dexmecamylamine substantially free of exo-R-mecamylamine) is administered to patients with seborrheic dermatitis. […] In some embodiments, the subject produces sebum in an amount of 100 μg/cm^2 and above (e.g., 125, 135, 150, 175, 200 μg/cm^2 or higher).

patients with wrinkles = assay: Treatment of wrinkles
Method: The compound of the disclosure (e.g., dexmecamylamine substantially free of exo-R-mecamylamine) is administered to patients with wrinkles. […] In some embodiments, the subject produces sebum in an amount of 100 μg/cm^2 and above (e.g., 125, 135, 150, 175, 200 μg/cm^2 or higher).

[5] = system: patients with sebaceous adenoma; assay: Treatment of sebaceous adenoma
Method: The compound of the disclosure (e.g., dexmecamylamine substantially free of exo-R-mecamylamine) is administered to patients with sebaceous adenoma. […] In some embodiments, the subject produces sebum in an amount of 100 μg/cm^2 and above (e.g., 125, 135, 150, 175, 200 μg/cm^2 or higher).

[6] = system: patients with sebaceous cyst; assay: Treatment of sebaceous cyst
Method: The compound of the disclosure (e.g., dexmecamylamine substantially free of exo-R-mecamylamine) is administered to patients with sebaceous cyst. […] In some embodiments, the subject produces sebum in an amount of 100 μg/cm^2 and above (e.g., 125, 135, 150, 175, 200 μg/cm^2 or higher).

[7] = system: patients with enlarged pores; assay: Treatment of enlarged pores
Method: The compound of the disclosure (e.g., dexmecamylamine substantially free of exo-R-mecamylamine) is administered to patients with enlarged pores. […] In some embodiments, the compound is dexmecamylamine substantially free of exo-R-mecamylamine, or a pharmaceutically acceptable salt thereof. In some embodiments, the subject produces sebum in an amount of 100 μg/cm^2 and above (e.g., 125, 135, 150, 175, 200 μg/cm^2 or higher).

[8] = system: patients with hidradenitis suppurativa; assay: Treatment of hidradenitis suppurativa
Method: The compound of the disclosure (e.g., dexmecamylamine substantially free of exo-R-mecamylamine) is administered to patients with hidradenitis suppurativa. […] In some embodiments, the subject produces sebum in an amount of 100 μg/cm^2 and above (e.g., 125, 135, 150, 175, 200 μg/cm^2 or higher). In particular, 4 mg of dexmecamylamine hydrochloride is administered orally twice a day to a subject with hidradenitis suppurativa. Efficacy is measured by a change in pain, as measured using a 10-point numerical rating scale, 1 through 10, with 10 being the worst, from baseline to week 12; a change in quality of life using Dermatology Life Quality Index (DLQI) from baseline to week 12; a change in clinical status using the Hurley Staging from baseline to week 12; a change in clinical status using the International Hidradenitis Suppurative Severity Score System (IHS4) from baseline to week 12; a change in clinical status using the Hidradenitis Suppurative Clinical Response (HiSCR) from baseline to week 12; a change in clinical status using the Hidradenitis Suppurative Physician Global Assessment (HS-PGA) from baseline to week 12; a change in clinical status using the Hidradenitis Suppurative Area and Severity Index-Revised (HASI-R) from baseline to week 12; and/or a change in the absolute number of abscesses and inflammatory nodules.

patients with seborrhea = assay: Treatment of seborrhea
Method: The compound of the disclosure (e.g., dexmecamylamine substantially free of exo-R-mecamylamine) is administered to patients with seborrhea. […] In some embodiments, the subject produces sebum in an amount of 100 μg/cm^2 and above (e.g., 125, 135, 150, 175, 200 μg/cm^2 or higher).

**Q.** What does the source list for `CN[C@@]1(C)[C@@H]2CC[C@@H](C2)C1(C)C` [dexmecamylamine]?
**A.** symptoms, sebaceous carcinoma [1]: improved symptoms; symptoms of acne (whiteheads, blackheads, papules, pimples, nodules, cysts) (patients with acne): improved symptoms; Average response category at 2 weeks ([2]; 2 mg BID): Low (Reduction in sebum production of less than 20%.); Average response category at 4 weeks ([2]; 2 mg BID): Medium^†† (Reduction in sebum production between 20% and 35%.); Responders (%) ([2]; 2 mg BID): 80%; facial sebum production ([2]; 2 mg or 4 mg BID, four weeks of treatment): reduction in facial sebum production; Average response category at 2 weeks ([2]; 4 mg BID): Low (Reduction in sebum production of less than 20%.); Average response category at 4 weeks ([2]; 4 mg BID): High^††† (Reduction in sebum production of greater than 35%.); Responders (%) ([2]; 4 mg BID): 100%; symptoms, oil production by the skin (patients with oily skin): improved symptoms; symptoms, sebaceous hyperplasia [3]: improved symptoms; symptoms, seborrheic dermatitis [4]: improved symptoms; symptoms, wrinkles (patients with wrinkles): improved symptoms; symptoms, sebaceous adenoma [5]: improved symptoms; symptoms, sebaceous cyst [6]: improved symptoms; symptoms, enlarged pores [7]: improved symptoms; symptoms, hidradenitis suppurativa [8]: improved symptoms; symptoms, seborrhea (patients with seborrhea): improved symptoms
